Test [1] deals with Casein kinase I isoform delta (Rattus norvegicus) (UniProt Q06486). Description: Inhibition of rat CK1delta assessed as residual activity at 1 uM relative to control.
Test [2] deals with T1, Eukaryotic elongation factor 2 kinase (Homo sapiens) (UniProt O00418).
T1 sequence (whole entry): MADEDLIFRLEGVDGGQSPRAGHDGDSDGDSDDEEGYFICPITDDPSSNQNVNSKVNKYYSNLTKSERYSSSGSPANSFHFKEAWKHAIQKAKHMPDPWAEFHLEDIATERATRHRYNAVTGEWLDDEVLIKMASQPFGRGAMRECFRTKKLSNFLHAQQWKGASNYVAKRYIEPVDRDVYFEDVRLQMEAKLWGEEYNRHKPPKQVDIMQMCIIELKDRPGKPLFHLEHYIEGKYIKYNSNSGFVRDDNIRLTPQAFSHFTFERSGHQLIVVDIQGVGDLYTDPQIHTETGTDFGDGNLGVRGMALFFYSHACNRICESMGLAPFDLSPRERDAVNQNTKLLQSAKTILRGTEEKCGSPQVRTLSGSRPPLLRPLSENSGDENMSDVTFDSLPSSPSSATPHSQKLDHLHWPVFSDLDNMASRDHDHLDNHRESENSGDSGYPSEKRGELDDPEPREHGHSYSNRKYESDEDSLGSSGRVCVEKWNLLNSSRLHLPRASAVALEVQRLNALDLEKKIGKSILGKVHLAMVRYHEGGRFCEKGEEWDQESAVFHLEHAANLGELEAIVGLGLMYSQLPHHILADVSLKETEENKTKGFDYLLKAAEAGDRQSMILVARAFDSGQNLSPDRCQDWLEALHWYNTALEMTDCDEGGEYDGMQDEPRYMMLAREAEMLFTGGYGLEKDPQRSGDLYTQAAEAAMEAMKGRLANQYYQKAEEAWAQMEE
Description: Inhibition of human EF2K assessed as residual activity at 10 uM relative to control.

Test [3] deals with Homeodomain-interacting protein kinase 2 (Homo sapiens) (UniProt Q9H2X6). Description: Inhibition of human HIPK2 assessed as residual activity at 10 uM relative to control.
The target of test [4] is T2, Inhibitor of nuclear factor kappa-B kinase subunit epsilon (Homo sapiens) (UniProt Q14164).
T2 sequence (whole entry): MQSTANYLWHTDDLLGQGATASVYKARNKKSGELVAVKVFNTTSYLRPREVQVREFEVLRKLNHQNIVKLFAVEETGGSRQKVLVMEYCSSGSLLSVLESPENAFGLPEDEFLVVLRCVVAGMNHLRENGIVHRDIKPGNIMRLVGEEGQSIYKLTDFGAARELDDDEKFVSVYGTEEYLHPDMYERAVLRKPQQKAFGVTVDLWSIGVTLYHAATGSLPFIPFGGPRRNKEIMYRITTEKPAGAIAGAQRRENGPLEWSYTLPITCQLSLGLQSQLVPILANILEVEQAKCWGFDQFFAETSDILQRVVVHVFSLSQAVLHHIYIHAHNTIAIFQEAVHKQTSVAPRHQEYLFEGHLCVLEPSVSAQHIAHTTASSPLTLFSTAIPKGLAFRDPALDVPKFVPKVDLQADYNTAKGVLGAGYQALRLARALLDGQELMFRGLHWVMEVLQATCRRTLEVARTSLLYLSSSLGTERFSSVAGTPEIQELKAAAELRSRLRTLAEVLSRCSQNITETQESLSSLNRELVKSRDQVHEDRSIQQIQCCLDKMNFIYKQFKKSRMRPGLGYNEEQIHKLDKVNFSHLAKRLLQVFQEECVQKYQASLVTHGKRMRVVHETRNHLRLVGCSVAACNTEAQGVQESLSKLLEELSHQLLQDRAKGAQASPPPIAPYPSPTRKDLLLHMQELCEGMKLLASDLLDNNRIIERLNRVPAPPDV
Kind of test: Inhibition of human IKKepsilon assessed as residual activity at 10 uM relative to control.

Test [5] deals with Casein kinase I isoform delta (Rattus norvegicus) (UniProt Q06486). Description: Inhibition of rat CK1delta assessed as residual activity at 10 uM relative to control.
The target of test [6] is T3, Serine/threonine-protein kinase Chk1 (Homo sapiens) (UniProt O14757).
T3 sequence (whole entry): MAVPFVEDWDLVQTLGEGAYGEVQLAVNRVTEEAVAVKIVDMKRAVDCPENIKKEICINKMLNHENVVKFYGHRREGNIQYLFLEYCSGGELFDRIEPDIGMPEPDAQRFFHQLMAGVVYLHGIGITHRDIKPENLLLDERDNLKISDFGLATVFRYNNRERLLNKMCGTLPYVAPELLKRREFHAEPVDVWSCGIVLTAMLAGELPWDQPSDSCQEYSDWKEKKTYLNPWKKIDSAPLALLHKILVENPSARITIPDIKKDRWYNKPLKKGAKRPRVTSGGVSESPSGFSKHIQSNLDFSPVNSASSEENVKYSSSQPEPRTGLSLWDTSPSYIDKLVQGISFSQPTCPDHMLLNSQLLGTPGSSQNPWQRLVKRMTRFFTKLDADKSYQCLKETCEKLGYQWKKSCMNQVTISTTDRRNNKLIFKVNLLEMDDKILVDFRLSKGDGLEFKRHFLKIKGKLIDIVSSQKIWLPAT
Kind of test: Inhibition of human CHK1 assessed as residual activity at 1 uM relative to control.

The target of test [7] is Ribosomal protein S6 kinase alpha-3 (Homo sapiens) (UniProt P51812). Kind of test: Inhibition of human RSK2 assessed as residual activity at 1 uM relative to control.
Test [8] deals with T3, Serine/threonine-protein kinase Chk1 (Homo sapiens). Kind of test: Inhibition of human CHK1 assessed as residual activity at 10 uM relative to control.
Test [9] concerns the target 3-phosphoinositide-dependent protein kinase 1 (Homo sapiens) (UniProt O15530). Description: Inhibition of human PDK1 assessed as residual activity at 10 uM relative to control.

SMILES strings stand for the structures.

This note sets out measurements from ChEMBL document CHEMBL2429821, “A Casein kinase 1/Checkpoint kinase 1 pyrazolo-pyridine protein kinase inhibitor as novel activator of the p53 pathway” (Bioorg Med Chem Lett, 2013).

Sequence of 3-phosphoinositide-dependent protein kinase 1 (Homo sapiens) (O15530 whole entry, looked up): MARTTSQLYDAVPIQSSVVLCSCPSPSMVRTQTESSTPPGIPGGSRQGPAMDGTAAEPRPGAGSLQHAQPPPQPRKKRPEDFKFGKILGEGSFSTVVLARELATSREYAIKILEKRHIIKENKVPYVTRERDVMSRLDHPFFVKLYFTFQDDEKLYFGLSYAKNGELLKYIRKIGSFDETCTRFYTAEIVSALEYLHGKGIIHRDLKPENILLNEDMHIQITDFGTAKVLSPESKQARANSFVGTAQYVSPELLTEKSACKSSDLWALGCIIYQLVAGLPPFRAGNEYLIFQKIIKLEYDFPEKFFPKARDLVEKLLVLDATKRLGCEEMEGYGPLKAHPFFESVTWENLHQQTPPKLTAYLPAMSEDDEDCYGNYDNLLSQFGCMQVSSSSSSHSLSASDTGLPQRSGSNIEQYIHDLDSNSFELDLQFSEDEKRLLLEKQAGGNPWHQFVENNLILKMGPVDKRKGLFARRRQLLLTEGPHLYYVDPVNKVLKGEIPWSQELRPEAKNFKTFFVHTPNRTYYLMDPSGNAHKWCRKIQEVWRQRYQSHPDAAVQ
Sequence of Ribosomal protein S6 kinase alpha-3 (Homo sapiens) (P51812 whole entry): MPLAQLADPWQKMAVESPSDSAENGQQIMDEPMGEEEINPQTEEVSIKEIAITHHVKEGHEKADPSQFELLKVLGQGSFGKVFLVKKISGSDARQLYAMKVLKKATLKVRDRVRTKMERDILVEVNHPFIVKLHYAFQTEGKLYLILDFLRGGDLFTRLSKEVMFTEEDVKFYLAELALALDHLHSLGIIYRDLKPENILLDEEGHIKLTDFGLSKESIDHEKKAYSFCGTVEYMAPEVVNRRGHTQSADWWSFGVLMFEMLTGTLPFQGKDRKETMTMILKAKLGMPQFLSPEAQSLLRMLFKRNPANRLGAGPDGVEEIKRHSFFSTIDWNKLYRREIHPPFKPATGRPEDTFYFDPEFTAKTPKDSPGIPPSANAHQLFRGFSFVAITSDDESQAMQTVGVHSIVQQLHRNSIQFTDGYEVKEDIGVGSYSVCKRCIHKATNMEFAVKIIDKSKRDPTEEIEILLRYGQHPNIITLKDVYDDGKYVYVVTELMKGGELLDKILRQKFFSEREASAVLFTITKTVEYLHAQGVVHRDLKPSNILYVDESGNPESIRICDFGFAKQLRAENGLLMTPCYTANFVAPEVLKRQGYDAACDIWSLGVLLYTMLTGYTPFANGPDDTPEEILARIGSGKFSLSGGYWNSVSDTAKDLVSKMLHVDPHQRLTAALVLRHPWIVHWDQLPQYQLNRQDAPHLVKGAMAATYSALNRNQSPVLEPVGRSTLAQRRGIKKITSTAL
Sequence of Casein kinase I isoform delta (Rattus norvegicus) (Q06486 whole entry, looked up, canonical isoform): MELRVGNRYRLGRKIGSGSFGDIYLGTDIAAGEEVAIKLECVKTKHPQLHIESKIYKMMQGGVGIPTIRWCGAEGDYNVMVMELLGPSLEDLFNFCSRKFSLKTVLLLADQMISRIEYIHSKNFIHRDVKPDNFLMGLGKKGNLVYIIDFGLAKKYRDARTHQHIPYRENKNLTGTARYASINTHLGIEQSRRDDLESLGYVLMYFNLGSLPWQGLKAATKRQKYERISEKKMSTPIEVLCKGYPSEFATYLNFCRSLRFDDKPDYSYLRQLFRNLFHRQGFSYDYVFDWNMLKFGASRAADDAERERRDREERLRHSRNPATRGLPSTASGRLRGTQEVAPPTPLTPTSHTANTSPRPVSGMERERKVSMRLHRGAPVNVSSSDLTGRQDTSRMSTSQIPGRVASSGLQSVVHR
Sequence of Homeodomain-interacting protein kinase 2 (Homo sapiens) (Q9H2X6 whole entry, looked up): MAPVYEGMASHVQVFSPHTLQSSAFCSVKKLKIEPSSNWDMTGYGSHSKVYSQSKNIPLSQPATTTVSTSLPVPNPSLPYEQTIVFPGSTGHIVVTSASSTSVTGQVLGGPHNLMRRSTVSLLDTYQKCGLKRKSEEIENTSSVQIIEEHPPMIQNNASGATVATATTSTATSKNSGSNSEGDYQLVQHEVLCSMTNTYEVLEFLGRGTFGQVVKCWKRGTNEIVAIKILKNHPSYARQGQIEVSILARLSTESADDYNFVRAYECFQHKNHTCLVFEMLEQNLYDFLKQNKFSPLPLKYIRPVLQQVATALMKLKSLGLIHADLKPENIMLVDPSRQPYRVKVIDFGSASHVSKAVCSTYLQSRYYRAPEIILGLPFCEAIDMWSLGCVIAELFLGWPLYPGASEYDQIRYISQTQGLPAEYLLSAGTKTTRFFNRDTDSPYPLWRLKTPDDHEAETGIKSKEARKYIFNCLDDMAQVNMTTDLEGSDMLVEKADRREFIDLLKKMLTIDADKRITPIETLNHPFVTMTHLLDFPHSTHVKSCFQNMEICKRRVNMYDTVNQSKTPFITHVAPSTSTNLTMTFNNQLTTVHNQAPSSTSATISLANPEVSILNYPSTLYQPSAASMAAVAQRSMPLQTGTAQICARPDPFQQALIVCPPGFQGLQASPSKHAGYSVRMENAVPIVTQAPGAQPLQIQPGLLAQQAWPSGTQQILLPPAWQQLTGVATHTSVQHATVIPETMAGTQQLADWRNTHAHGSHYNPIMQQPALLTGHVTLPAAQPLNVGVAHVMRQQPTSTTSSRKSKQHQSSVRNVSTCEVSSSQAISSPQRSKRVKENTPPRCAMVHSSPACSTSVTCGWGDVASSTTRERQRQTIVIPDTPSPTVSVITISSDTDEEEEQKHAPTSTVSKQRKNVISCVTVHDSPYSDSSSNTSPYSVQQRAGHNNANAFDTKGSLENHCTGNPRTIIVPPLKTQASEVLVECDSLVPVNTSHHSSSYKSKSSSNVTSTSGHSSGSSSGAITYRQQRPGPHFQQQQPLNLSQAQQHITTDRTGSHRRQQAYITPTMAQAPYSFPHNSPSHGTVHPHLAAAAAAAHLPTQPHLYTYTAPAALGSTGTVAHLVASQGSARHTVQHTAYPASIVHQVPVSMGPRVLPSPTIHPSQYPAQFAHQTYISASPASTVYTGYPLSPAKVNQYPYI

On to `CC(=O)Nc1nccc(-c2c(-c3ccccc3)noc2C)n1`, for which the Activity was 44.4% in [1]; 83% in test [2]; 94.2% in [3]; 82.4% in test [4]; 7.2% in [5]; 80.6% in test [6]. Further, the Activity in test [7] is 78.7%; in [8], 105%; in [9], 66%.

As for `CCCC(=O)Nc1n[nH]c2ncc(-c3cccnc3)cc12`, the Activity was found to be 73% in test [1]; 95% in test [2]; 31% in test [3]; 89% in [4]; 84% in test [5]; 92% in test [6]. Further, the Activity in test [7] came out at 92%; in test [8] it was 82%; in test [9], 98%.

For `CC(=O)Nc1cccc(-c2cnc3[nH]nc(C)c3c2)c1`, the Activity in test [1] was 32.7%; in test [2], 106%; in [3], 42.4%; in test [4] it was 52%; in test [5], 10%; in test [6], 31.5%. Besides, the Activity in test [7] came to 93.8%; in [8], 4.34%; in [9], 70.4%.
